# Measured values as given in patent publication US20220071921A1, “COMPOUNDS FOR PREVENTING AND TREATING SKIN OR MUCOSAL AFFECTIONS HAVING AN INFLAMMATORY COMPONENT” (GIULIANI S.P.A., priority 2018, published 2022).
# Experiments:
# Dermcidin [1] = test: Dermcidin immunofluorescent staining in human microdissected scalp hair follicle organ culture; assay type: cell-based; settings: 500 μM, 3 and 5 days, ex vivo
# Method: (§1) Human scalp samples were obtained 1 day after face-lifting procedure (i.e. after overnight transport from collaborating surgeons) and used at the same day for microdissecting human anagen VI scalp HFs. […] Microdissected human scalp HFs were cultured at 37° C. with 5% CO2 in a minimal media of William's E media (WEM, Gibco, Life technologies) supplemented with 2 mM of L-glutamine (Gibco), 10 ng/ml hydrocortisone (Sigma-Aldrich), 10 μg/ml insulin (Sigma-Aldrich) and 1% penicillin/streptomycin mix (Gibco) (WEM). After microdissection, the HFs were first incubated in WEM for 24 hrs for re-equilibration.
# (§2) After 24 hours, WEM medium was replaced and HFs were treated with vehicle (0.1% DMSO), sandal pentanol 500 μM, for 3 or 5 days for (immuno-)histology or 6 hours for microarray. Culture medium was replaced every second day and after […], HFs were then embedded in cryomatrix (Fisher Scientific), and snap frozen in liquid nitrogen for (immuno-)histology.
# OCT embedded samples were sectioned with a Leica cryostat. Dermicidin protein was detected using tissue sections fixed in 4% paraformaldehyde, pre-incubated with 10% of goat serum, and incubated with a mouse anti-human Dermcidin (Novus Biologicals, G-81, 1:200). Secondary antibody (Goat anti—mouse Alexa fluor 488) incubation was performed at room temperature for 45 min. Counterstaning with DAPI (1 μg/mL) was performed to visualize nuclei.
# Dermcidin [2] = test: Microarray analysis of human microdissected scalp hair follicles; assay type: cell-based; settings: sandal pentanol 500 μM, 6 hours, vs vehicle (0.1% DMSO)
# Method: as §1, §2
structure (smiles),measurement,setting,value
"CC1=CCC(CCC(C)C(C)O)C1(C)C (stereo not drawn) [Sandalore, 3-methyl-5-(2,2,3-trimethylcyclopent-3-en-1-yl)pentan-2-ol]",Dermcidin protein expression in hair follicle outer root sheath keratinocytes,Dermcidin [1],increased
same,Dermcidin expression increase (microarray),Dermcidin [2],77.6 folds
same,transcripts of AMPs genes (microarray),Dermcidin [2],up-regulated
